# In patent publication US20110217300A1, “Quinazolinone Compounds and Methods of Use Thereof” (priority 2007, published 2011):
# Where two headings read alike, the source gives them in different places.
# Tests used:
# NCI-H460 = assay: MTS cell viability assay; assay type: cell-based, human; conditions: Homo sapiens, NCI-H460, 72 h
# Experimental: Cell viability was determined by measuring the activity of dehydrogenase enzymes in metabolically active cells using a tetrazolium compound, MTS. The assay was performed as described in Promega Technical Bulletin No. 169 (CellTiter 96 Aqueous Non-Radioactive Cell Proliferation Assay). Two human cancer cell lines were assayed (see, Table 1). Cells were maintained at 37° C. and 5% CO2 in DMEM media (4.5 g/L glucose) supplemented with 10% heat-inactivated FBS, 10 mM L-glutamine, and 10 mM Hepes pH 7.5. Briefly, cells were seeded in 96-well plates as set forth in Table 1 and incubated for 16-24 hours. Candidate compounds were serially diluted in DMSO, further diluted in cell culture media, and then added to cells (final DMSO concentration of 0.33%). Cells were incubated in the presence of candidate compound for 72 hours. MTS stock solution (MTS 2 gm/L, PMS […] in PBS) was added to the cells (final concentration MTS […] and PMS 7.67 mg/L) and incubated for 4 hours. SDS was added to a final concentration of 1.4% and absorbance at 490 nm was measured within two hours using a plate reader. […] GI50 values were given in Table 2 for the compounds listed. The Compound Numbers in Table 2 correspond to the numbers listed parenthetically in the Example titles. Where multiple measurements were made by different technicians, both values are given.
# Cell viability was determined for N-(3-amino-propyl)-3-chloro-N—[(R)-1-(7-chloro-4-oxo-3-phenylamino-3,4-dihydro-quinazolin-2-yl)-but-3-ynyl]-2-fluoro-benzamide (compound I of Table 2). The cell viability assay of Example 105 was used. GI50 was determined using a variety of cell lines. Cells were plated at 100-5000 cells per well. At least 2 replicates were performed. Where multiple measurements were made by different technicians, both values are given.
# HsEg5 = molecular target: T1, HsEg5 (Homo sapiens, UniProt P52732); assay: Fluorescence detection of HsEg5 ATPase activity (ADP Quest, automated); assay type: biochemical
# T1 sequence (P52732 18-359 limits assumed): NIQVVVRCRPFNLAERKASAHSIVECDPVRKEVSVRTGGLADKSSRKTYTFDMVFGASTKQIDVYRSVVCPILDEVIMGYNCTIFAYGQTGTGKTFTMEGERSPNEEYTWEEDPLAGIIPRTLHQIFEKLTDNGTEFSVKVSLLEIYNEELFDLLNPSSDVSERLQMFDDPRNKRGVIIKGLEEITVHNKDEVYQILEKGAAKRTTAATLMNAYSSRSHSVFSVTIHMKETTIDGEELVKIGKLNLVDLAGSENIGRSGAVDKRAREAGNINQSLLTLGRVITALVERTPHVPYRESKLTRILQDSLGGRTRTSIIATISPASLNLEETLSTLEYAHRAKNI
# Experimental: Purified HsEg5 motor fragment was activated by mixture with preformed MT polymer (Cytoskeleton, Denver, Colo.) at room temperature for 20 minutes. MT activated ATPase activity was measured using ADP Quest (DiscoverX, Fremont, Calif.) in which a coupled-enzyme assay can translate accumulation of ADP into detectable resorufin signal (FIG. 1A). Fluorescence was measured at λEx=535 nm and λEm=590 nm on a Wallac Victor 2 plate reader (Perkin-Elmer Life Sciences, Boston, Mass.). Reagent A and B from ADP Quest kit were aliquoted and frozen in −20° C. before use. A standard curve was determined using the provided ADP reagent in the reaction buffer that consisted of 50 mM Pipes (pH7.0), 5.0 mM MgCl2, 20 μM paclitaxel and […]. The same buffer was used for Km determination with HsEg5 concentration of 10 nM.
# For inhibitor screening, 4 μL of compounds were incubated with 10 μL of MT-activated HsEg5 such that the final concentrations for compound range from 100 μM to 5 nM (1 to 3 serial dilutions, final concentration) and final concentration for HsEg5 is 10 nM. The mixture was incubated at room temperature for 10 minutes with mild shaking. The screening assay contained 0.3% DMSO in all reaction wells. We used wells containing only DMSO as negative controls and wells without ATP as background. Addition of 6 μL ATP (final concentration of 20 μM) initiated the ATP hydrolysis reaction. The 20 μL-reaction was allowed to proceed at room temperature for 10 minutes before addition of 10 μL of reagent A and 20 μL of reagent B. After 20-minute development at room temperature, the fluorescence was measured and data analysis was performed using GraphPad Prism version 3.0 (GraphPad Software, San Diego, Calif.)
# For the purpose of high-throughput screening, we automated the fluorescence assay using a Sciclone ALH3000 (Caliper Life Sciences, Hopkinton, Mass.) and Multidrop 384 (Thermo Electron Corp, Waltham, Mass.). First, compound dilution plates for screening (at 10 μM or 1 μM) and ICso determination (10 data points from 100 μM to 5 nM) were made in Corning polypropylene V-bottom 96-well plates. In both cases, the 1st and 7th column contained background (No ATP addition) and negative control (DMSO only). For screening compounds at 10 μM or 1 μM, […] of each compound at 50 μM or 5 μM were used in a 20 μL assay reaction. For IC50 determination, the mother compound plate contained 24 μL of tested compound at stock concentration of 30 mM. 6 μL of each test compound in 30 mM was added to each well in the column 2 and followed by 1:3 serial dilutions in DMSO with the Sciclone ALH3000. 234 μL of assay buffer was then added using a Multidrop 384. Then 4 μL of diluted compounds was used in 20 μL-reaction. The final concentration was a 1:300 dilution of the original stock. Second, a reagent source plate was prepared with three rows designated to MT-activated HsEg5, Reagent A and Reagent B respectively. MTs were diluted with assay buffer and polymerized at room temperature for 10 minutes. Just before use, HsEg5 protein was thawed on ice and activated by addition of MT polymers at room temperature for 20 minutes. HsEg5/MT was then added to Row A of the reagent source plate. The final assay concentration was 10 nM HsEg5 and 500 nM MTs. Reagent A and B were stored at −20° C. and thawed at room temperature followed by transferring to rows B & C of the reagent source plate. Third, ATP substrate plate was prepared by transferring 80 μM ATP solution to each well of a V-shape 96-well plate except the wells in the first row where assay buffer was added instead to have no-ATP blanks. The final concentration for ATP in the assay was 20 μM.
# The assay was programmed on Sciclone ALH3000 with the following procedures: 1) Addition of 4 μL compounds to the assay plate, followed by addition of 10 μL of MT-activated HsEg5. […]
# A549 = assay: MTS cell viability assay; assay type: cell-based; conditions: Homo sapiens, A549 non small cell lung, 72 hours, read-out: MTS NCI A549 GI50
# Experimental: Two human cancer cell lines were assayed (see, Table 1). Cells were maintained at 37° C. and 5% CO2 in DMEM media (4.5 g/L glucose) supplemented with 10% heat-inactivated FBS, 10 mM L-glutamine, and 10 mM Hepes pH 7.5. Briefly, cells were seeded in 96-well plates as set forth in Table 1 and incubated for 16-24 hours. Candidate compounds were serially diluted in DMSO, further diluted in cell culture media, and then added to cells (final DMSO concentration of 0.33%). Cells were incubated in the presence of candidate compound for 72 hours. […] The Compound Numbers in Table 2 correspond to the numbers listed parenthetically in the Example titles.
# [1] = read-out: MTS NCI H460 GI50, NCI-H460 non small cell lung, 72 hours
SMILES,GI50 (NCI-H460; [1]) [nM],IC50 (HsEg5) [nM],"GI50 (A549; A549, 72 h) [nM]",GI50 (NCI-H460; read-out: MTS NCI H460 GI50) [nM],GI50 (A549) [nM]
"CCC(c1nc2cc(Cl)ccc2c(=O)n1Nc1ccccc1)N(CCCN)C(=O)c1ccc(Cl)c(Cl)c1 (stereo not drawn) [Compound 6, N-(3-Aminopropyl)-N-[1-(3-anilino-7-chloro-4-oxo-3,4-dihydroquinazolin-2-yl)propyl]-3,4-dichlorobenzamide]",1160,418,1870,,
"CCC(c1nc2cc(Cl)ccc2c(=O)n1Nc1ccccc1)N(CCCN)C(=O)c1cccc(F)c1F (stereo not drawn) [Compound 7, N-(3-Aminopropyl)-N-[1-(3-anilino-7-chloro-4-oxo-3,4-dihydroquinazolin-2-yl)propyl]-2,3-difluorobenzamide]",,566,,1770,2570
"CCC(c1nc2cc(Cl)ccc2c(=O)n1Nc1ccccc1)N(CCCN)C(=O)c1ccc(F)cc1 (stereo not drawn) [Compound 8, N-(3-Aminopropyl)-N-[1-(3-anilino-7-chloro-4-oxo-3,4-dihydroquinazolin-2-yl)propyl]-4-fluorobenzamide]",2830,2130,4750,,
"CCC(c1nc2cc(Cl)ccc2c(=O)n1Nc1ccccc1)N(CCCN)C(=O)c1ccc(F)c(F)c1 (stereo not drawn) [Compound 9, N-(3-Aminopropyl)-N-[1-(3-anilino-7-chloro-4-oxo-3,4-dihydroquinazolin-2-yl)propyl]-3,4-difluorobenzamide]",2390,1160,3570,,
"CCC(c1nc2cc(Cl)ccc2c(=O)n1Nc1ccccc1)N(CCCN)C(=O)c1ccc(F)c(F)c1F (stereo not drawn) [Compound 10, N-(3-Aminopropyl)-N-[1-(3-anilino-7-chloro-4-oxo-3,4-dihydroquinazolin-2-yl)propyl]-2,3,4-trifluorobenzamide]",1140,599,2360,,
"CCC(c1nc2cc(Cl)ccc2c(=O)n1Nc1ccccc1)N(CCCN)C(=O)c1cc(Cl)cc(Cl)c1 (stereo not drawn) [Compound 11, N-(3-Aminopropyl)-N-[1-(3-anilino-7-chloro-4-oxo-3,4-dihydroquinazolin-2-yl)propyl]-3,5-dichlorobenzamide]",,735,,2440,3010
"CCC(c1nc2cc(Cl)ccc2c(=O)n1Nc1ccccc1)N(CCCN)C(=O)c1cccc(Cl)c1Cl (stereo not drawn) [Compound 12, N-(3-Aminopropyl)-N-[1-(3-anilino-7-chloro-4-oxo-3,4-dihydroquinazolin-2-yl)propyl]-2,3-dichlorobenzamide]",,818,,2110,3370
"CCC(c1nc2cc(Cl)ccc2c(=O)n1Nc1ccccc1)N(CCCN)C(=O)c1ccc(F)c(Cl)c1 (stereo not drawn) [Compound 13, N-(3-Aminopropyl)-N-[1-(3-anilino-7-chloro-4-oxo-3,4-dihydroquinazolin-2-yl)propyl]-3-chloro-4-fluorobenzamide]",,749,,2210,3570
"CCC(c1nc2cc(Cl)ccc2c(=O)n1Nc1ccccc1)N(CCCN)C(=O)c1cccc(Br)c1 (stereo not drawn) [Compound 14, N-(3-Aminopropyl)-N-[1-(3-anilino-7-chloro-4-oxo-3,4-dihydroquinazolin-2-yl)propyl]-3-bromobenzamide]",,1000,,3250,3440
"CCC(c1nc2cc(Cl)ccc2c(=O)n1Nc1ccccc1)N(CCCN)C(=O)c1ccc(I)cc1 (stereo not drawn) [Compound 15, N-(3-Aminopropyl)-N-[1-(3-anilino-7-chloro-4-oxo-3,4-dihydroquinazolin-2-yl)propyl]-4-iodobenzamide]",2270,1650,3080,,
"CCC(c1nc2cc(Cl)ccc2c(=O)n1Nc1ccccc1)N(CCCN)C(=O)c1ccc(C)c(F)c1 (stereo not drawn) [Compound 16, N-(3-Aminopropyl)-N-[1-(3-anilino-7-chloro-4-oxo-3,4-dihydroquinazolin-2-yl)propyl]-3-fluoro-4-methylbenzamide]",,1150,,929,1360
"CCC(c1nc2cc(Cl)ccc2c(=O)n1Nc1ccccc1)N(CCCN)C(=O)c1c(F)ccc(C)c1F (stereo not drawn) [Compound 17, N-(3-Aminopropyl)-N-[1-(3-anilino-7-chloro-4-oxo-3,4-dihydroquinazolin-2-yl)propyl]-2,6-difluoro-3-methylbenzamide]",1590,1600,2560,,
"CCC(c1nc2cc(Cl)ccc2c(=O)n1Nc1ccccc1)N(CCCN)C(=O)c1ccc(F)c(C)c1 (stereo not drawn) [Compound 18, N-(3-Aminopropyl)-N-[1-(3-anilino-7-chloro-4-oxo-3,4-dihydroquinazolin-2-yl)propyl]-4-fluoro-3-methylbenzamide]",2500,1250,3920,,
"CCC(c1nc2cc(Cl)ccc2c(=O)n1Nc1ccccc1)N(CCCN)C(=O)c1cccc(Cl)c1F (stereo not drawn) [Compound 19, N-(3-Aminopropyl)-N-[1-(3-anilino-7-chloro-4-oxo-3,4-dihydroquinazolin-2-yl)propyl]-3-chloro-2-fluorobenzamide]",,582,,894,1570
